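Exposure lasted 48 hours, with cells grown in 96-well plates and compounds tested at five concentrations. The concentration for 50% growth inhibition is given as GI50.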 Calls of active or inactive are those of the source. No stated cut-off is given here; in the data, active = GI50 up to about 1.1 µM and inactive = higher.
What was measured:
Assay in all cases: inhibition of tumour cell growth, NCI panel, 48 h
[1] = tested on: EKVX
[2] = tested on: OVCAR-4
[3] = tested on: TK-10
[4] = tested on: HOP-62
[5] = tested on: SNB-75
[6] = tested on: RXF 393
[7] = tested on: ACHN
[8] = tested on: SF-295
[9] = tested on: NCI-H522
[10] = tested on: SK-MEL-2
[11] = tested on: SF-268
[12] = tested on: IGROV-1
[13] = tested on: A498
[14] = tested on: M14
[15] = tested on: MDA-N
[16] = tested on: K562
[17] = tested on: SN12C
[18] = tested on: NCI/ADR-RES
[19] = tested on: UO-31
[20] = tested on: SK-MEL-28

SMILES | GI50 [1] | GI50 [2] | GI50 [3] | GI50 [4] | GI50 [5] | GI50 [6] | GI50 [7] | GI50 [8] | GI50 [9] | GI50 [10] | GI50 [11] | GI50 [12] | GI50 [13] | GI50 [14] | GI50 [15] | GI50 [16] | GI50 [17] | GI50 [18] | GI50 [19] | GI50 [20]
C(=N\Nc1ccc(-c2nc3ccccc3[nH]2)cc1)/c1c(-c2ccc(Cc3ccccc3)cc2)[nH]c2ccccc12 | 20.4 µM (inactive) | 14.1 µM (inactive) | 21.5 µM (inactive) | 19.6 µM (inactive) | 4.47 µM (inactive) | 2.29 µM (inactive) | 11 µM (inactive) | 2.56 µM (inactive) | 9.08 µM (inactive) | 3.56 µM (inactive) | 0.925 µM (active) | 4.41 µM (inactive) | 11.4 µM (inactive) | 4.48 µM (inactive) | 2.38 µM (inactive) | 4.46 µM (inactive) | 18.6 µM (inactive) | 5.31 µM (inactive) | 10.8 µM (inactive) | 12.9 µM (inactive)
CC(C)(C)OC(=O)NC(Cc1ccc(OC(C)(C)C)cc1)C(=O)N[C@H]1CCC[C@H]1C(=O)NC(Cc1ccccc1)C(=O)N1CCCC1C(N)=O (stereo partly drawn) | > 100 µM (inactive) | > 100 µM (inactive) | > 100 µM (inactive) | > 100 µM (inactive) | > 100 µM (inactive) | > 100 µM (inactive) | > 100 µM (inactive) | > 100 µM (inactive) | > 100 µM (inactive) | > 100 µM (inactive) | > 100 µM (inactive) | > 100 µM (inactive) | > 100 µM (inactive) | > 100 µM (inactive) | > 100 µM (inactive) | > 100 µM (inactive) | > 100 µM (inactive) | > 100 µM (inactive) | > 100 µM (inactive) | > 100 µM (inactive)
O=C1/C(=C/c2ccc(O)cc2)CCc2ccccc21 | 23 µM (inactive) | 18.5 µM (inactive) | 51.5 µM (inactive) | 22.9 µM (inactive) | 26.9 µM (inactive) | 17.1 µM (inactive) | 21.1 µM (inactive) | 28 µM (inactive) | 3.05 µM (inactive) | 16 µM (inactive) | 16.1 µM (inactive) | 26.9 µM (inactive) | 24.7 µM (inactive) | 20.2 µM (inactive) | 22.1 µM (inactive) | 13.6 µM (inactive) | 18.3 µM (inactive) | 12.7 µM (inactive) | 19.6 µM (inactive) | 19.2 µM (inactive)
Cc1ccc(S(=O)(=O)NNC(=S)Nc2cccc3ccccc23)cc1 | 38.3 µM (inactive) | 22.3 µM (inactive) | 53.7 µM (inactive) | 59.3 µM (inactive) | 27.9 µM (inactive) | 85.9 µM (inactive) | 29.9 µM (inactive) | 34.7 µM (inactive) | 16.7 µM (inactive) | 4.45 µM (inactive) | 70.6 µM (inactive) | 61.5 µM (inactive) | 39.1 µM (inactive) | 43.2 µM (inactive) | 55.3 µM (inactive) | 35.5 µM (inactive) | 33.7 µM (inactive) | 38.1 µM (inactive) | 43.4 µM (inactive) | 54.1 µM (inactive)
Clc1ccc(/C=N/c2ccc3c(c2)Cc2ccccc2-3)c(Cl)c1 | > 100 µM (inactive) | > 100 µM (inactive) | > 100 µM (inactive) | > 100 µM (inactive) | > 100 µM (inactive) | > 100 µM (inactive) | > 100 µM (inactive) | > 100 µM (inactive) | > 100 µM (inactive) | > 100 µM (inactive) | > 100 µM (inactive) | > 100 µM (inactive) | > 100 µM (inactive) | > 100 µM (inactive) | 53.2 µM (inactive) | 58.3 µM (inactive) | > 100 µM (inactive) | > 100 µM (inactive) | > 100 µM (inactive) | > 100 µM (inactive)
CN(O)C(=O)CCC(NC(=O)CCC(N)C(=O)O)C(=O)NCC(=O)O (stereo not drawn) | > 100 µM (inactive) | > 100 µM (inactive) | > 100 µM (inactive) | > 100 µM (inactive) | > 100 µM (inactive) | > 100 µM (inactive) | > 100 µM (inactive) | > 100 µM (inactive) | > 100 µM (inactive) | > 100 µM (inactive) | > 100 µM (inactive) | > 100 µM (inactive) | > 100 µM (inactive) | > 100 µM (inactive) | > 100 µM (inactive) | > 100 µM (inactive) | > 100 µM (inactive) | > 100 µM (inactive) | > 100 µM (inactive) | > 100 µM (inactive)
O=C1/C(=C2\Sc3c(ccc(Cl)c3Cl)C2=O)Sc2c1ccc(Cl)c2Cl | > 100 µM (inactive) | > 100 µM (inactive) | > 100 µM (inactive) | 12.6 µM (inactive) | 20.3 µM (inactive) | 89.1 µM (inactive) | > 100 µM (inactive) | 33.1 µM (inactive) | > 100 µM (inactive) | > 100 µM (inactive) | > 100 µM (inactive) | > 100 µM (inactive) | > 100 µM (inactive) | > 100 µM (inactive) | > 100 µM (inactive) | > 100 µM (inactive) | > 100 µM (inactive) | > 100 µM (inactive) | > 100 µM (inactive) | > 100 µM (inactive)
CCCCn1cnc2c(SC)ncnc21 | 41.7 µM (inactive) | > 100 µM (inactive) | > 100 µM (inactive) | > 100 µM (inactive) | > 100 µM (inactive) | > 100 µM (inactive) | > 100 µM (inactive) | > 100 µM (inactive) | > 100 µM (inactive) | > 100 µM (inactive) | > 100 µM (inactive) | > 100 µM (inactive) | > 100 µM (inactive) | > 100 µM (inactive) | > 100 µM (inactive) | 44.8 µM (inactive) | > 100 µM (inactive) | > 100 µM (inactive) | > 100 µM (inactive) | > 100 µM (inactive)
COc1ccc(C(=O)/C=C/c2ccc(O)c(O)c2)c(OC)c1 | 11.8 µM (inactive) | 12.4 µM (inactive) | 6.14 µM (inactive) | 4.32 µM (inactive) | 1.91 µM (inactive) | 8.18 µM (inactive) | 10.9 µM (inactive) | 3.66 µM (inactive) | 0.245 µM (active) | 2.77 µM (inactive) | 1.4 µM (inactive) | 0.887 µM (active) | 4.5 µM (inactive) | 3.99 µM (inactive) | 0.454 µM (active) | 0.442 µM (active) | 1.22 µM (inactive) | 2.75 µM (inactive) | 9.33 µM (inactive) | 7.6 µM (inactive)
CCOc1cc(NC(C)=O)ccc1C(=O)NN1C(=O)CSC1c1ccc(O)c(OC)c1 (stereo not drawn) | 42.7 µM (inactive) | 39.9 µM (inactive) | 6.67 µM (inactive) | > 100 µM (inactive) | 85.3 µM (inactive) | 34.7 µM (inactive) | 51.4 µM (inactive) | 50.8 µM (inactive) | 37.8 µM (inactive) | 49 µM (inactive) | 71.4 µM (inactive) | 60.4 µM (inactive) | > 100 µM (inactive) | 50.4 µM (inactive) | 54.7 µM (inactive) | 40.7 µM (inactive) | > 100 µM (inactive) | 30.8 µM (inactive) | 10.8 µM (inactive) | 84.5 µM (inactive)
O=C1C2CC(Cl)C(SSC3CC4C(=O)N(SC(Cl)(Cl)C(Cl)Cl)C(=O)C4CC3Cl)CC2C(=O)N1SC(Cl)(Cl)C(Cl)Cl (stereo not drawn) | 3.01 µM (inactive) | 2.13 µM (inactive) | 2.59 µM (inactive) | 2.81 µM (inactive) | 2.05 µM (inactive) | 1.33 µM (inactive) | 2.23 µM (inactive) | 5.13 µM (inactive) | 0.379 µM (active) | 1.53 µM (inactive) | 1.65 µM (inactive) | 1.3 µM (inactive) | 2.81 µM (inactive) | 1.21 µM (inactive) | 1.7 µM (inactive) | 0.979 µM (active) | 1.91 µM (inactive) | 2.06 µM (inactive) | 1.94 µM (inactive) | 2.15 µM (inactive)
C1=N\CCN2CCN(CC/N=C\c3ccccc3OCc3cccc(n3)COc3ccccc3/1)CC2 | 13 µM (inactive) | 6.15 µM (inactive) | 8.3 µM (inactive) | 14.6 µM (inactive) | 9.66 µM (inactive) | 0.508 µM (active) | 9.71 µM (inactive) | 3.62 µM (inactive) | 24.2 µM (inactive) | 20.6 µM (inactive) | 2.15 µM (inactive) | 11.2 µM (inactive) | 40.9 µM (inactive) | 7.74 µM (inactive) | 1.11 µM (active) | 2.48 µM (inactive) | 10.6 µM (inactive) | 2.28 µM (inactive) | 13.8 µM (inactive) | 13.8 µM (inactive)
CCOc1c(OC)cc(-c2nc3n(n2)C(=O)C(CC)S3)cc1OC (stereo not drawn) | > 10 µM (inactive) | > 10 µM (inactive) | > 10 µM (inactive) | > 10 µM (inactive) | > 10 µM (inactive) | > 10 µM (inactive) | > 10 µM (inactive) | > 10 µM (inactive) | > 10 µM (inactive) | > 10 µM (inactive) | > 10 µM (inactive) | > 10 µM (inactive) | > 10 µM (inactive) | > 10 µM (inactive) | > 10 µM (inactive) | > 10 µM (inactive) | > 10 µM (inactive) | > 10 µM (inactive) |  | > 10 µM (inactive)
Clc1ccccc1-c1nn2c(CCCCCCCCc3nnc4sc(-c5ccccc5Cl)nn34)nnc2s1 | > 100 µM (inactive) | > 100 µM (inactive) | > 100 µM (inactive) | > 100 µM (inactive) | > 100 µM (inactive) | > 100 µM (inactive) | > 100 µM (inactive) | > 100 µM (inactive) | 77.3 µM (inactive) | > 100 µM (inactive) | > 100 µM (inactive) |  | > 100 µM (inactive) | > 100 µM (inactive) | > 100 µM (inactive) | > 100 µM (inactive) | > 100 µM (inactive) | > 100 µM (inactive) | > 100 µM (inactive) | > 100 µM (inactive)

Source: ChEMBL document CHEMBL1201862, “PubChem BioAssay data set” (2004)
